Assay results published in PubChem BioAssay AID1963975 (Molecular Pharmacology Branch, DTP, NCI, 2024).

Tested on: 624824-186-R-J2-PDC multicell spheroids, viability
Assay: Anticancer human tumor 624824-186-R-J2-PDC patient-derived colon adenocarcinoma cell line growth inhibition [PI3K]
Settings: for IC50: curve of first compound; for viability, T/C: stronger effect = lower value
Method in brief: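 Spheroid viability read-out. Co-cultures contained the tumor line plus HUVEC and human MSCs. Each agent was paired with a PI3K inhibitor (inavolisib, alpelisib, duvelisib, copanlisib) across half-log dilutions starting at clinical Cmax, or at 10 microM when Cmax was unknown.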

[1] = second compound 0.0316 µM, first compound 0.0316 µM
[2] = second compound 0.0316 µM, first compound 0.1 µM
[3] = second compound 0.0316 µM, first compound 0.316 µM
[4] = second compound 0.0316 µM, first compound 1 µM
[5] = second compound 0.0316 µM, first compound 3.16 µM
[6] = second compound 0.0316 µM, first compound 10 µM
[7] = second compound 0.1 µM, first compound 0.0316 µM
[8] = second compound 0.1 µM, first compound 0.1 µM
[9] = second compound 0.1 µM, first compound 0.316 µM
[10] = second compound 0.1 µM, first compound 1 µM
[11] = second compound 0.1 µM, first compound 3.16 µM
[12] = second compound 0.1 µM, first compound 10 µM
[13] = second compound 0.316 µM, first compound 0.0316 µM
[14] = second compound 0.316 µM, first compound 0.1 µM
[15] = second compound 0.316 µM, first compound 0.316 µM
[16] = second compound 0.316 µM, first compound 1 µM
[17] = second compound 0.316 µM, first compound 3.16 µM
[18] = second compound 0.316 µM, first compound 10 µM
[19] = second compound 1 µM, first compound 0.0316 µM
[20] = second compound 1 µM, first compound 0.1 µM
[21] = second compound 1 µM, first compound 0.316 µM
[22] = second compound 1 µM, first compound 1 µM
[23] = second compound 1 µM, first compound 3.16 µM
[24] = second compound 1 µM, first compound 10 µM
[25] = second compound 3.16 µM, first compound 0.0316 µM
[26] = second compound 3.16 µM, first compound 0.1 µM
[27] = second compound 3.16 µM, first compound 0.316 µM
[28] = second compound 3.16 µM, first compound 1 µM
[29] = second compound 3.16 µM, first compound 3.16 µM
[30] = second compound 3.16 µM, first compound 10 µM
[31] = second compound 10 µM, first compound 0.0316 µM
[32] = second compound 10 µM, first compound 0.1 µM
[33] = second compound 10 µM, first compound 0.316 µM
[34] = second compound 10 µM, first compound 1 µM
[35] = second compound 10 µM, first compound 3.16 µM
[36] = second compound 10 µM, first compound 10 µM
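Note: spheroids exposed to agents for 7 days before viability read.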
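Throughout, for viability, T/C: 100% = DMSO vehicle treated spheroids.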

C#Cc1c(F)ccc2cc(O)cc(-c3ncc4c(N5CC6CCC(C5)N6)nc(OCC56CCCN5CC(F)C6)nc4c3F)c12 (centres undefined) + CC(Nc1ncnc2nc[nH]c12)c1cc2cccc(Cl)c2c(=O)n1-c1ccccc1
IC50 (second compound 0.0316 µM): > 10 µM | IC50 (second compound 0.1 µM): > 10 µM | IC50 (second compound 0.316 µM): > 10 µM | IC50 (second compound 1 µM): > 10 µM | IC50 (second compound 3.16 µM): > 10 µM | IC50 (second compound 10 µM): > 10 µM | viability, T/C [1]: 81.5% | viability, T/C [2]: 80% | viability, T/C [3]: 106% | viability, T/C [4]: 73.1% | viability, T/C [5]: 93.2% | viability, T/C [6]: 59.5% | viability, T/C [7]: 83.8% | viability, T/C [8]: 78.7% | viability, T/C [9]: 76% | viability, T/C [10]: 74.1% | viability, T/C [11]: 77.9% | viability, T/C [12]: 67.7% | viability, T/C [13]: 78.9% | viability, T/C [14]: 93.6% | viability, T/C [15]: 93.8% | viability, T/C [16]: 82.5% | viability, T/C [17]: 64.5% | viability, T/C [18]: 71.9% | viability, T/C [19]: 73% | viability, T/C [20]: 72.8% | viability, T/C [21]: 81% | viability, T/C [22]: 76.6% | viability, T/C [23]: 86.3% | viability, T/C [24]: 75.5% | viability, T/C [25]: 78.8% | viability, T/C [26]: 97.9% | viability, T/C [27]: 74.7% | viability, T/C [28]: 84.3% | viability, T/C [29]: 94.6% | viability, T/C [30]: 70.2% | viability, T/C [31]: 87.4% | viability, T/C [32]: 83.2% | viability, T/C [33]: 91.4% | viability, T/C [34]: 102% | viability, T/C [35]: 98% | viability, T/C [36]: 89.4%

C=CC(=O)N1CCN(c2nc(=O)n(-c3c(C)ccnc3C(C)C)c3nc(-c4c(O)cccc4F)c(F)cc23)C(C)C1 (centres undefined) + CC(Nc1ncnc2nc[nH]c12)c1cc2cccc(Cl)c2c(=O)n1-c1ccccc1
IC50 (second compound 0.0316 µM): > 10 µM | IC50 (second compound 0.1 µM): > 10 µM | IC50 (second compound 0.316 µM): > 10 µM | IC50 (second compound 1 µM): > 10 µM | IC50 (second compound 3.16 µM): > 10 µM | IC50 (second compound 10 µM): > 10 µM | viability, T/C [1]: 77.6% | viability, T/C [2]: 82.8% | viability, T/C [3]: 100% | viability, T/C [4]: 85.2% | viability, T/C [5]: 75.2% | viability, T/C [6]: 77.9% | viability, T/C [7]: 95.2% | viability, T/C [8]: 77.9% | viability, T/C [9]: 82% | viability, T/C [10]: 93.6% | viability, T/C [11]: 78.1% | viability, T/C [12]: 90.2% | viability, T/C [13]: 104% | viability, T/C [14]: 94.2% | viability, T/C [15]: 79.4% | viability, T/C [16]: 88.7% | viability, T/C [17]: 83.8% | viability, T/C [18]: 72.8% | viability, T/C [19]: 106% | viability, T/C [20]: 80.7% | viability, T/C [21]: 84.8% | viability, T/C [22]: 84.4% | viability, T/C [23]: 77.3% | viability, T/C [24]: 70.6% | viability, T/C [25]: 97.6% | viability, T/C [26]: 96.6% | viability, T/C [27]: 77.5% | viability, T/C [28]: 90.4% | viability, T/C [29]: 85.5% | viability, T/C [30]: 81% | viability, T/C [31]: 116% | viability, T/C [32]: 98.7% | viability, T/C [33]: 109% | viability, T/C [34]: 99.2% | viability, T/C [35]: 92.3% | viability, T/C [36]: 83%
